Converted amounts (≈) assume the structure as drawn.
How the values were obtained:
[1] = test system: MCF-7 human breast cancer cells; assay: [14C]acetate incorporation into total lipids; assay type: cell-based; settings: MCF7
Description: Measurement of [^14 C]acetate Incorporation into Total Lipids and Determination of IC50 of Compounds
This assay measures the incorporation of [^14C]acetate into total lipids and is a measure of fatty acid synthesis pathway activity in vitro. It is utilized to measure inhibition of fatty acid synthesis in vitro.
MCF-7 human breast cancer cells cultured as above, are plated at 5×10^4 cells per well in 24-well plates. Following overnight incubation, the compounds to be tested, solubilized in DMSO, are added at 5, 10, and 20 μg/ml in triplicate, with lower concentrations tested if necessary. DMSO is added to triplicate wells for a vehicle control. C75 is run at 5 and 10 μg/ml in triplicate as positive controls. After 4 hours of incubation, 0.25 μCi of [^14C]acetate (10 μl volume) is added to each well.
After 2 hours of additional incubation, medium is aspirated from the wells and 800 μl of chloroform:methanol (2:1) and 700 μl of 4 mM MgCl2 is added to each well. Contents of each well are transferred to 1.5 Eppendorf tubes, and spun at full-speed for 2 minutes in a high-speed Eppendorf Microcentrifuge 5415D. After removal of the aqueous (upper) layer, an additional 700 μl of chloroform:methanol (2:1) and 500 μl of 4 mM MgCl2 are added to each tube and then centrifuged for 1 minutes as above. The aqueous layer is removed with a Pasteur pipette and discarded. An additional 400 μl of chloroform:methanol (2:1) and 200 μl of 4 mM MgCl2 are added to each tube, then centrifuged and aqueous layer is discarded. The lower (organic) phase is transferred into a scintillation vial and dried at 40° C. under N2 gas. Once dried, 3 ml of scintillant (APB #NBC5104) is added and vials are counted for ^14C. The Beckman Scintillation counter calculates the average cpm values for triplicates.
The IC50 for the compounds is defined as the concentration of drug leading to a 50% reduction in [^14C]acetate incorporation into lipids compared to controls. This is determined by plotting the average cpm for each inhibitor concentration tested, performing linear regression and computing the best-fit line, r^2 values, and 95% confidence intervals. The average cpm values are computed by the Beckman scintillation counter (Model LS6500) for each compound concentration. Computation of linear regression, best-fit line, r^2, and 95% confidence intervals are calculated using Prism Version 3.0 (Graph Pad Software).

[2] = Weight loss screen in Balb/C mice; assay type: in vivo; settings: 60 mg/kg intraperitoneally, day 1
Description: Weight Loss Screen for Novel FAS Inhibitors
Balb/C mice (Jackson Labs) are utilized for the initial weight loss screening. Animals are housed in temperature and 12 hour day/night cycle rooms and fed mouse chow and water ad lib. Three mice are utilized for each compound tested with vehicle controls in triplicate per experiment. For the experiments, mice are housed separately for each compound tested three mice to a cage. Compounds are diluted in DMSO at 10 mg/ml and mice are injected intraperitoneally with 60 mg/kg in approximately 100 μl of DMSO or with vehicle alone. Mice are observed and weighed daily; average weights and standard errors are computed with Excel (Microsoft). The experiment continues until treated animals reach their pretreatment weights.

[3] = test system: MCF-7 human breast cancer cells; assay: Crystal violet cell growth assay, MCF-7; assay type: cell-based; settings: MCF7, no cell code printed, MCF-7 per method, 72 hours, read-out: Cr. Violet (IC50)
Description: Crystal Violet Cell Growth Assay
The crystal violet assay measure cell growth but not cytotoxicity. This assay employs crystal violet staining of fixed cells in 96-well plates with subsequent solubilization and measurement of OD490 on a spectrophotometer. The OD490 corresponds to cell growth per unit time measured. Cells are treated with the compounds of interest or vehicle controls and IC50 for each compound is computed.
To measure the cytotoxicity of specific compounds against cancer cells, 5×10^4 MCF-7 human breast cancer cells, obtained from the American Type Culture Collection are plated per well in 24 well plates in DMEM medium with 10% fetal bovine serum, penicillin, and streptomycin. Following overnight culture at 37° C. and 5% CO2, the compounds to be tested, dissolved in DMSO, are added to the wells in 1 μl volume at the following concentrations: 50, 40, 30, 20, and 10 μg/ml in triplicate. […]
After 72 hours of incubation, cells are stained with 0.5 ml of Crystal Violet stain (0.5% in 25% methanol) in each well. […] Following transfer of 100 μl from each well to a 96-well plate, plates are read at OD490 on a Molecular Devices SpectraMax Plus Spectrophotometer Average OD490 values are computed using SOFTmax Pro Software (Molecular Devices) and IC50 values are determined by linear regression analysis using Prism version 3.02 (Graph Pad Software, San Diego).

Row | IC50 [1] | IC50 [3] | SMILES | Weight Loss [2]
1 | 39.8 ± 12.7 µg/mL (≈ 93.6 µM) | 7.6 µg/mL (≈ 17.9 µM) | CCCCCCCCC1(C)SC(=O)C=C1OCC(=O)NNc1ccccc1Cl (centres unmarked) [Compound 19, (5-Methyl-5-octyl-2-oxo-thiophen-4-yloxy)-acetic-acid-N′-(2-chlorophenyl)-hydrazide] | 60 mg/kg: +3.0% (day 1)
2 | 17.4 µg/mL (≈ 41.5 µM) | 18.2 µg/mL (≈ 43.4 µM) | CCCCCCCCC1(C)SC(=O)C=C1OCC(=O)NNC(=O)c1ccncc1 (centres unmarked) [Compound 20] | 

— patent US20100168176A1, “NOVEL COMPOUNDS, PHARMACEUTICAL COMPOSITIONS CONTAINING SAME, AND METHODS OF USE FOR SAME” (FASGEN LLC, priority 2006, published 2010)
